Source: US20240016161A1, “HERBICIDAL MENTHA PLANT EXTRACT COMPOSITIONS AND METHODS OF USING SAME” (Harpe Bioherbicide Solutions Inc., priority 2020, published 2024)

Columns and labels:
[1] = test system: Timothy; assay: POST synergy treatments in pots; type: in vivo; conditions: POST emergence to 10 cm plants
Experimental: (§1) Potted plants. These assays are conducted in pots using a commercial potting media to establish broadleaf and grass plants with at least one true leaf. The cotyledons are not treated in these assays.

[2] = test system: Rye; assay: POST synergy treatments in pots; type: in vivo, ryegrass; conditions: POST emergence to 10 cm plants
Experimental: as §1

[3] = test system: Rye; assay: PRE synergy of weed control in pots/soil; conditions: two weeks after planting, Pendimethalin / Mentha piperata, rate in label
Experimental: (§4) Potted soil. Commercial potting mix is used as a base with approximately 2 inches of 5% organic matter soil used on the top. Seeds are sown in the soil between 1 cm and 2.5 cm (as indicated by best practices for each plant-seed), filtered water added with various broadleaf and grass species to initiate germination. Conducted in the dark at 75/60 F day night temperature with relative humidity at 50%. Seeds are allowed to imbibe water for 24 hours. […] Seeds, wells have water added every two days. Seeds are monitored for 14 days following treatment. Visual rating for germination, radicle, shoot, and root elongation are recorded. Commercial herbicides are also used at the US label recommended rate for treatment as a positive control.

[4] = test system: Timothy; assay: PRE synergy of weed control in pots/soil; conditions: two weeks after planting, Pendimethalin / Mentha piperata, rate in label
Experimental: as §4

[5] = test system: Timothy; assay: PRE germination synergy in Petri dishes; type: in vivo; conditions: preemergence, Topramezone / Mentha spicata, rate in label
Experimental: (§2) Petri Dish. Seed impacts. Dishes layered with filter paper and filtered water added with various broadleaf and unwanted grass species to initiate germination. Conducted in the dark at 75/60° F. day night temperature with relative humidity at 50%. […] The percent volume/volume of extract to water carrier is summarized above. The amount in mg/ml was calculated based on the percent of extract mixed with water. […] Seeds have water added every two days. […] Plates are exposed to 12/12 hour day/night cycle after 7 days.

[6] = test system: Timothy; assay: Disrupting metabolism of herbicide resistant plants in pots, green loss; type: in vivo; conditions: POST, Topramezone / Mentha piperata, rate in label
From the text: (§3) Testing involves the same methods as listed above but with weeds/plants which are resistant to herbicides. An example plant is corn, which uses a cytochrome P450 enzyme(s) to detoxify certain commercially available herbicides (Ex. mesotrione). Corn also uses a glutathione S-transferase detoxification system for other commercially available herbicides (ex. Atrazine). Still other examples of herbicide detoxification include “Phase I” reactions—dechlorination, hydroxylation, decarboxylation, dealkylation, oxidation/reduction, and hydrolysis are the initial chemical reactions that occur. These reactions detoxify the herbicide and predispose the resultant metabolites to conjugation. “Phase II” reactions are another example, by conjugation with sugars, amino acids or natural plant constituents (metabolites are strongly bound). Also, “Phase II” I reactions are unique to plants and consist of secondary conjugation reactions or the formation of insoluble bound residues. Most crops grown in the world utilize detoxification, mixed function oxidase, enzymes to protect themselves from herbicides and other xenobiotics. Weeds also utilize this system of enzymes, as well as other biochemical actions, to prevent herbicides from damaging or killing the weeds. […]

[7] = test system: 2-leaf corn; assay: Disrupting metabolism of herbicide resistant plants in pots; type: in vivo; conditions: POST to 2-leaf corn, Topramezone / Mentha piperata, rate in label
From the text: as §3

[8] = test system: seedlings; assay: PRE germination synergy in Petri dishes, bleaching; type: in vivo, ryegrass and Timothy; conditions: preemergence, Topramezone / Mentha spicata, rate in label
Experimental: as §2

[9] = test system: Rye; assay: PRE germination synergy in Petri dishes; type: in vivo, ryegrass; conditions: preemergence, Topramezone / Mentha spicata, rate in label
Experimental: as §2

[10] = Atrazine / Mentha piperata, rate in label
[11] = Glyphosate / Mentha piperata, 7 days
[12] = Glyphosate / Mentha piperata, 14 days

SMILES: CCNc1nc(Cl)nc(NC(C)C)n1 [Atrazine 1x alone, Atrazine]
- % control Timothy [1, 10]: 60%
- % control Rye [2, 10]: 55%

SMILES: O=C(O)CNCP(=O)(O)O [Glyphosate 1x alone, Glyphosate]
- % control Timothy 7 days [1, 11]: 0%
- % control Timothy 14 Days [1, 12]: 90%
- % control Rye 7 days [2, 11]: 0%
- % control Rye 14 Days [2, 12]: 85%

SMILES: CCC(CC)Nc1c([N+](=O)[O-])cc(C)c(C)c1[N+](=O)[O-] [Pendi 1x, Pendimethalin]
- % control Rye [3]: 37%
- % control Rye ([3]; listed as Pendi 2x): 57%
- % control Rye ([3]; listed as Pendi 4x): 92%
- % control Timothy [4]: 50%
- % control Timothy ([4]; listed as Pendi 2x): 75%
- % control Timothy ([4]; listed as Pendi 4x): 83%

SMILES: Cc1c(C(=O)c2cnn(C)c2O)ccc(S(C)(=O)=O)c1C1=NOCC1 [Topro 1x alone, Topramezone]
- PRE Germination % control Timothy [5]: 60%
- % Green loss Timothy 14 Day [6]: 5%
- % Control 14 Day [7]: 0%
- % bleaching of seedlings [8]: 50%
- PRE Germination % control Rye [9]: 50%
